In article PMC9569954, “The Antidepressant-like Activity, Effects on Recognition Memory Deficits, Bioavailability, and Safety after Chronic Administration of New Dual-Acting Small Compounds Targeting Neuropsychiatric Symptoms in Dementia” (International Journal of Molecular Sciences, 2022):
Like-named read-outs stand apart in the source and are kept apart here.

What was measured:
Type in all cases: in vivo, male Wistar rats
rats [1] = experiment: Forced swim test (FST); conditions: rat; for effect on immobility in FST / Immobility time: acute 1 mg/kg i.p.; for Immobility time: 60 min before test, 5 min session, vehicle 255.9 ± 8.6
Method: The rats were injected for 21 consecutive days at a dose of 1 mg/kg, similar to the dose used in acute treatment, as per data presented in Supplementary Materials (Table S1). The FST was conducted according to the method of Porsolt. On the first day of the experiment, the animals were gently placed individually for 15 min in Plexiglas cylinders (40 cm high, 18 cm in diameter) containing 15 cm of water maintained at 23–25 °C. On removal from water, the rats were placed for 30 min in a Plexiglas box under a 60 W bulb to dry. On the following day (24 h later), the rats were replaced in the cylinder and the total duration of immobility was recorded during the whole 5 min test period. Immobility was assigned when no additional activity was observed other than that necessary to keep the rat’s head above the water. Fresh water was used for each animal.
FST after acute administration of the investigated compounds
Rats were injected 60 min before the test at a dose of 1 mg/kg. FST was carried out according to the method of Porsolt, and the same procedure was used for chronic treatment.
Table S1. Effect of acute treatment of PQA-AZ4, PQA-AZ6, and PQ-10 on the immobility time in the […]
Compound (mg/kg) Immobility time (s)
Compounds were injected i.p. 60 min before the test. Values represent the means ± SEM of immobility in the FST during a 5 min test session. The data were analyzed using one -way ANOVA, followed by Bonferroni‘s post hoc test; NS = nonsignificant; N=7-8.

[2] = Pharmacokinetics and brain uptake after i.v. and i.g. administration; conditions: rat; for half-life / Cmax / MRT / AUC(0-t) / C0 / clearance / bioavailability / Tmax / Kp / Vd: male, Wistar; for half-life: in vivo, elimination from body, route not stated; for bioavailability: i.g. 2 mg/kg vs i.v. 0.5 mg/kg, read-out: F (absolute bioavailability); for Kp: brain/plasma, read-out: Brain/Plasma ratio; for Vd: read-out: Vss
Text: The compounds investigated, namely, PQA-AZ4 and PQA-AZ6 (UPLC/MS purity > 95%), were synthesized at the Department of Medicinal Chemistry, Jagiellonian University Medical College (synthesis described in [10]); PQ-10, (6,7-dimethoxy-4-[(3R)-3-(2-quinoxalinyloxy)-1-pyrrolidinyl]-quinazoline, was obtained from Sigma-Aldrich (St. Louis, MO, USA). For the studies, the compounds were suspended in 1% aqueous solution of Tween 80, while (+)-MK-801 (hydrogen maleate, Sigma-Aldrich, St. Louis, MO, USA) was dissolved in distilled water. In the behavioral studies, PQA-AZ4, PQA-AZ6, and PQ-10 were injected intraperitoneally (i.p.) once a day (between 9:00 AM and 10:00 AM) for 21 consecutive days at the minimum active doses selected previously, based on acute treatment and assessment in behavioral tests at a volume of 2 mL/kg body weight. The control groups received 1% aqueous solution of Tween 80 (Sigma-Aldrich, St. Louis, MO, USA) in the same schedule. For the pharmacokinetic study, PQA-AZ4 and PQA-AZ6 dissolved in 20% captizol (Ligand, San Diego, CA, USA) were administered intravenously (i.v.) and intragastrically (i.g.) at a dose of 0.5 and 2 mg/kg, respectively, while ketamine (50 mg/kg, (hydrochloride, Biowet Puławy, Puławy, Poland)) and xylazine (8 mg/kg, hydrochloride, Biowet Puławy, Poland)) were injected i.p.
HPLC grade methanol, acetonitrile and reagent grade formic acid, hydrochloric acid, potassium dihydrogen phosphate, orthophosphoric acid, and sodium chloride were purchased from Merck (Darmstadt, Germany). Tissues (control blood and brain) were obtained from adult male Wistar rats anesthetized by i.p. injection of 50 mg/kg ketamine plus 8 mg/kg xylazine, and blood samples were collected in heparinized tubes from the heart. Blood samples were collected at 0 (predose), 15, 60, 240, and 1440 min after compound administration. The plasma was separated by centrifugation (1000× g, 10 min). Plasma and brain were stored at −80 °C pending analysis. The LC/ESI-MS/MS experiments were performed on a UPLC ACQUITY H-Class PLUS/Xevo TQD (Waters Corporation, Milford, MA, USA) triple-quadrupole mass spectrometer equipped with an electrospray (ESI) ionization interface. Data acquisition and processing were accomplished using MassLynx data collection and integration software. For the chromatographic and mass spectrometric conditions, and sample pretreatment, please see the Supplementary Materials.
Pharmacokinetic parameters were calculated by a noncompartmental approach from the average concentration values, using Phoenix WinNonlin software (Certara, Princeton, NJ 08540 USA). The first-order elimination rate constant (λz) was calculated by linear regression of log concentration versus time. The area under the mean plasma and brain concentration versus time curve (AUC0→t) was calculated from zero to the last concentration point using the linear trapezoidal rule:(1) AUC0→t=∑i=1nCi+Ci+1/2·(ti+1−ti) where Ci is the concentration of the compound.
The area under the first-moment curve (AUMC0→t) was estimated by calculation of the total area under the first-moment curve:(2) AUMC0→t=∑i=1n((ti·Ci+ti+1·Ci+1)/2)·(ti+1−ti) where ti is the […].
Mean residence time (MRT) was calculated as:(3) MRT=AUMC0→t/AUC0→t
Systemic clearance (Cl) was calculated as:(4) Cl=Div/AUC0→t
The volume of distribution at steady state (Vss) was calculated as:(5) Vss=Div⋅AUMC0→t/(AUC0→t )^2
The absolute bioavailability (F) of PQA-AZ4 and PQA-AZ6 after i.g. administration was calculated as:(6) F(%)=AUCi.g./AUCi.v.⋅Di.v./Di.g.⋅100 where Di.v. and Di.g. are i.v. and i.g. doses of the studied molecules, respectively.
1. Methods in pharmacokinetic studies
Instrumentation and operating conditions
The LC/ESI-MS/MS experiments were performed on a UPLC ACQUITY H-Class PLUS/Xevo
TQD (Waters Corporation, USA) triple-quadrupole mass spectrometer equipped with an electrospray
(ESI) ionization interface. Data acquisition and processing were accomplished using MassLynx data […]

rats [3] = experiment: 18-hour spontaneous activity monitoring; conditions: rat, 1 mg/kg/day i.p.
Method: Spontaneous activity was measured on the 20th day of the treatment with a special, innovative, radio-frequency identification system (RFID-system), TraffiCage (TSE-Systems, Bad Homburg, Germany). The test was conducted according to the method described previously. The animals had RFID transmitters implanted subcutaneously, which tracked the time they spent in different areas of the cage.

[4] = chronic 1 mg/kg/day i.p., 21 days
[5] = brain, iv, 0.5 mg/kg, i.v. 0.5 mg/kg
[6] = brain, po, 2 mg/kg, i.g. 2 mg/kg
[7] = plasma, iv, 0.5 mg/kg, i.v. 0.5 mg/kg, plasma
[8] = plasma, po, 2 mg/kg, i.g. 2 mg/kg

Structure (SMILES)	effect on immobility in FST (rats [1])	Immobility time (rats [1]) [s]	antidepressant-like activity in FST (rats [1]; [4])	half-life [2] [h]	Cmax ([2]; iv, i.v. 0.5 mg/kg, brain) [ng/g]	MRT ([2]; iv, i.v. 0.5 mg/kg, brain) [h]	AUC(0-t) ([2]; iv, i.v. 0.5 mg/kg, plasma) [ng·h/mL]	C0 ([2]; iv, i.v. 0.5 mg/kg, plasma) [ng/mL]	MRT ([2]; iv, i.v. 0.5 mg/kg, plasma) [h]	clearance ([2]; iv, i.v. 0.5 mg/kg, plasma) [mL/min/kg]	bioavailability ([2]; plasma, oral) [%]	Cmax ([2]; po, i.g. 2 mg/kg, brain) [ng/g]	MRT ([2]; po, i.g. 2 mg/kg, brain) [h]	AUC(0-t) ([2]; po, i.g. 2 mg/kg, plasma) [ng·h/mL]	Cmax ([2]; po, i.g. 2 mg/kg, plasma) [ng/mL]	MRT ([2]; po, i.g. 2 mg/kg, plasma) [h]	Tmax [2, 5] [h]	Tmax [2, 6] [h]	Kp ([2]; iv, 0.5 mg/kg, i.v. 0.5 mg/kg)	Kp ([2]; po, 2 mg/kg, i.g. 2 mg/kg)	further results
COc1cccc(N2CCN(CC3CCN(c4ncnc5cc(OC)c(OC)cc45)C3)CC2)c1 (centres unmarked) [PQA-AZ4, 6,7-Dimethoxy-4-(3-((4-(3-methoxyphenyl)piperazin-1-yl)methyl)pyrrolidin-1-yl)quinazoline]	did not change the immobility	244.8 ± 8.9	inactive	~1	149	3.1	714	431	0.958	10.8	8.29	71.4	3.58	118	46.7	1.38	0.25	1	0.9	5.7	bioavailability ([2]; plasma, po): 8.3%; Vd [2, 7]: 0.8 L/kg; Tmax [2, 8]: ≤ 1 h; Brain/Plasma ratio ([2]; i.g. 2 mg/kg): 5.68; AUC0→t ([2]; i.g. 2 mg/kg, brain): 40,314 ng·min/g; t0.5 ([2]; i.g. 2 mg/kg, brain): 214 min; t0.5 ([2]; i.g. 2 mg/kg, plasma): 92 min; AUC0→t ([2]; i.v. 0.5 mg/kg, brain): 40,806 ng·min/g; t0.5 ([2]; i.v. 0.5 mg/kg, brain): 220 min; t0.5 ([2]; i.v. 0.5 mg/kg, plasma): 67.3 min; spontaneous activity vs vehicle (rats [3]; five and six hours after 20-day administration): increased
COc1cc2ncnc(N3CCC(CN4CCN(c5ccc(Cl)cc5)CC4)C3)c2cc1OC (centres unmarked) [PQA-AZ6, 4-(3-((4-(4-Chlorophenyl)piperazin-1-yl)methyl)pyrrolidin-1-yl)-6,7-dimethoxyquinazoline]	did not change the immobility	255.4 ± 7.0	showed antidepressant-like properties	~1	113	7.4	93.6	102	0.742	85.2	38.4	342	12	144	99.5	1.11	0.25	0.25	8.6	5.3	decrease of immobility vs. control group in FST (rats [1]; [4]): about 11%; Vd [2, 7]: ~4.7 L/kg; Tmax [2, 8]: 0.25 h; Brain/Plasma ratio ([2]; i.g. 2 mg/kg): 5.29; AUC0→t ([2]; i.g. 2 mg/kg, brain): 45,623 ng·min/g; t0.5 ([2]; i.g. 2 mg/kg, brain): 1928 min; t0.5 ([2]; i.g. 2 mg/kg, plasma): 216.8 min; AUC0→t ([2]; i.v. 0.5 mg/kg, brain): 48,321 ng·min/g; t0.5 ([2]; i.v. 0.5 mg/kg, brain): 597 min; t0.5 ([2]; i.v. 0.5 mg/kg, plasma): 54.2 min; spontaneous activity vs vehicle (rats [3]; eighteen hours after 20-day administration): decreased
